Laboratory results published in patent US20240409935A1, “Atg8ylation coordinates stress granule formation and mTOR inactivation in response to lysosomal damage” (priority 2023, published 2024).

How the values were obtained:
Assay type in all cases: cell-based, human
[1] = test system: U2OS wildtype (WT) and ΔΔG3BP1/2 cells; assay: Propidium iodide (PI) uptake cell death assay (HCM) in U2OS WT and ΔΔG3BP1/2 cells; conditions: ΔΔG3BP1/2 cells compared to wildtype U2OS cells, 2 mM LLOMe for 30 min
Method: Cells Were treated with 2 mM LLOMe for 30 min, and then stained with propidium iodide (PI) (dead cells) and Hoechst-33342 (total cells). White masks, algorithm-defined cell boundaries (primary objects); red masks, computer-identified PI^+ nuclei (target objects). […] Cells Were treated with 2 mM LLOMe for 30 min. […] Cells Were treated with 2 mM in the presence or absence of 10 μg/ml cycloheximide (CHX) for 30 min, and then stained with PI (dead cells) and Hoechst-33342 (total cells). […] Scale bar, 10 μm. […] Cells Were treated with 2 mM LLOMe with or without CHX for 30 min, and then stained using Live/Dead™ stain kit (ThermoFisher). […] (i) HCM images: white masks, algorithm-defined cell boundaries; green masks, computer-identified eIF4G puncta; red masks, computer-identified PI^+ nuclei (target objects); (ii and iii) corresponding HCM quantification. […]
How does SG formation affect cell fate during lysosomal damage? […] The inventors quantified the number of SGs using the canonical SG marker polyA RNA (Ivanov et al., 2019) via high-content microscopy (HCM) (FIG. S1B) and verified the depletion of SG formation in ΔΔG3BP1/2 cells when exposed to the lysosome-specific damaging agent L-leucyl-L-leucine methyl ester (LLOMe) (Jia et al., 2022; Tan et al., 2022; Thiele et al., 1990) (FIG. 7SB). […]

[2] = test system: DCP1a puncta (P-bodies) in U2OS cells; assay: HCM quantification of DCP1a puncta (P-body formation) in U2OS cells; conditions: 2 mM LLOMe for 30 min
[3] = test system: eIF2α (S51) phosphorylation; assay: Immunoblot analysis of eIF2α (S51) phosphorylation in U2OS cells; conditions: U2OS cells

## COC(=O)[C@H](CC(C)C)NC(=O)[C@@H](N)CC(C)C [LLOMe, L-leucyl-L-leucine methyl ester]
[1]
  cell death by PI uptake assay: significant cell death
[2]
  P-body formation (DCP1a marker): did not induce P-body
[3]; 2 mM LLOMe 30 min followed by 1 h washout
  eIF2α pS51 response after LLOMe washout: subsided
[3]; 2 mM LLOMe for 30 min
  phosphorylation of eIF2α on Ser51: induced phosphorylation of eIF2α on Ser51
[3]; 2 mM LLOMe, later time points
  phosphorylated eIF2α at later times during treatment: reduced levels of phosphorylated eIF2α at later times
[3]; indicated dose of LLOMe for 30 min
  eIF2α phosphorylation, dose dependence: induced eIF2α phosphorylation
